# “Also recorded” adds a separate entry of the source. Like-named read-outs stand apart in the source and are kept apart here.
# How the values were obtained:
# [1] = target: T1, cNLRX1 (wild type) (Homo sapiens, UniProt Q86UT6); assay: SPR (Biacore T200) direct binding to immobilized cNLRX1 wild type; conditions: for kon: NLRX1: WT, read-out: ka
# T1 construct: cNLRX1 (AA 667–970) was cloned into pPinkHC-Alpha-SDK; polyhistidine (6x); made in house; host or cells: Pichia pastoris (Strain 4: ade2, prb1, pep4)
# Protocol: White colonies on drop adenine media were screened for protein expression via small-scale induction and both pellets and supernatants were screened for expression via western blot using an anti-polyhistidine (6x) antibody (Immunology Consultants Laboratory, Inc). […] Every 24 hours post induction cells were fed 10 mL of methanol and 10% filter sterilized sorbitol for 4 days post induction. Cells were subsequently harvested at 10,000 x g for 15 min and were either used immediately or stored at -80°C.
# Cells were re-suspended in 40 mL of ice-cold lysis buffer (50mM Sodium Phosphate, 200mM sodium chloride, 25mM Sucrose, 0.1% T-100, pH = 7.2) and sonicated 8 times at max amplitude using a 15 sec ON 45 sec OFF cycle. Lysed cells were centrifuged at 15,000 x g for 30 min at 4°C. Supernatant were loaded onto a 150 mL Super-loop and purified using a programmed immobilized metal affinity chromatography gradient protocol on the AKTA prime plus. Bound protein was washed with 40 column volumes of wash buffer (50 mM sodium phosphate buffer, 300 mM sodium chloride, 20 mM imidazole, pH 8.0) and eluted in 1 mL fractions over a 0.02-1M imidazole 40 mL gradient. Purity was assessed via SDS-PAGE. Proteins were further purified via gel filtration chromoatograhy using a Superdex75 column (16/600) in 50 mM sodium phosphate, 300 mM sodium chloride pH 8.0. […] Protein was dialyzed (1:1000) twice at 4°C for a minimum of 8 hours in appropriate buffers for downstream assays.
# (§1) Direct binding experiments were performed via the Biacore T200 Surface Plasmon Resonance (SPR) Technology (Georgetown University). […] The cNLRX1 was immobilized to a CM4 or CM5 chip by amine coupling method. Two adjacent surfaces were activated by injection of a 1:1 (v:v) mixture of 0.1 M N-Hydroxysuccinimide (NHS) and 0.4 M 1-Ethyl-3-(3-dimethyl-aminopropyl)-carbodiimide hydrochloride (EDC) for 720 seconds. Experimental flow cell was then injected with the cNLRX1 that was diluted in 10 mM pH 4.0 sodium acetate buffer to a final concentration of 25 μg/mL. Both experimental and the reference flow cells were inactivated by injection of 1M Ethanolamine-HCl pH 8.0 for 720 seconds.
# (§2) Negative control compound, 1,14-bis (3,b-dimethoxypheny1)-tetradecane, was tested at a concentration of 20 μM. Injection time was 60 seconds and dissociation time was 300 seconds. […] Data was analyzed by using the BiaEvaluation software (GE Healthcare) with 1:1 binding model for steady state affinity. Raw data was exported and graphed using Prizm for Mac v5.0d and excel.
# [2] = test system: NF-κB p65 activity in BMDMs from wild type and Nlrx1-/- mice; assay: NF-κB p65 ELISA (TransAM) on LPS-stimulated bone marrow derived macrophages; assay type: cell-based, mouse; conditions: LPS 1μg/ml 12 hours, then 40 μM compound 12 hours
# Protocol: Bone marrow derived macrophages (BMDM)s were isolated from hind legs of wild type and Nlrx1-/- mice in sterile conditions and cultured for 7 days as described. […] Nuclear extraction was performed on colon homogenates using the Active Motif Nuclear Extraction Kit (Carlsbad, CA) as previously described. ELISA was performed on nuclear fractions using the Active Motif TransAM® NF-κB p65 kit according to the manufacturer’s instructions.
# The NF-κB activation by NLRX1 ligands was detected and quantified by using the Trans-AM™ NF-κB p65 ELISA-based assay (Active Motif, Carlsbad, CA) as described in the manual of the Active Motif TransAM® NF-κB p65 kit.
# Fig 4 Effect of NLRX1 disruption on NF-κB activation in Bone marrow derived macrophage (BMDM). […] Nuclear extraction was performed on colon homogenates using the Active Motif Nuclear Extraction Kit (Carlsbad, CA). ELISA was performed on both cytoplasmic and nuclear fractions using the Active Motif TransAM® NF-κB p65 kit according to the manufacturer’s instructions. Letter superscripts indicate significant (P-value < 0.05) differences by ANOVA.
# [3] = target: T2, cNLRX1 ASP677, PHE680, PHE681, and GLU684 to alanine mutant (Mutant) (Homo sapiens, UniProt Q86UT6, D677A/E684A/F680A/F681A); assay: SPR (Biacore T200) direct binding to immobilized Mutant cNLRX1
# T2 construct: cNLRX1 (AA 667–970) was cloned into pPinkHC-Alpha-SDK; polyhistidine (6x); made in house
# Protocol: as §1, §2
# [4] = test system: DSS-induced colitis and spontaneous pan-enteritis in IL-10−/− mice; conditions: cited from earlier work
# [5] = test system: DSS-induced colitis; conditions: for disease activity: 8% DSS six days, PUA 40 mg/kg oral gavage daily vs PBS
# Protocol: C57BL/6J wild-type (WT) and Nlrx1-/- mice (n = 10) ranging from 8–10 weeks of age were administered 8% DSS (average […] molecular weight) in drinking water for six days. Control mice received tap water. […] On day 6, mice were euthanized via carbon dioxide narcosis with secondary cervical dislocation. All mice were weighed and scored daily. Clinical scores were based on physical appearance (0–3), fecal consistency (0–3), presence of rectal bleeding (0–4), and weight loss (0–3) and assigned a compounded score for overall disease activity (0–4).
# Total RNA was isolated from whole mouse colon using a Qiagen (Germantown, MD) RNA isolation mini kit. Complementary DNA (cDNA) was generated from each sample (1 μg RNA) using the iScript cDNA synthesis kit (Bio-Rad). Standards were produced through a polymerase chain reaction on the cDNA with Taq DNA polymerase from Invitrogen. The amplicon was purified using the Mini-Elute PCR purification kit from Qiagen. Expression levels were obtained through quantitative real-time PCR on a Bio-Rad (Hercules, CA) CFX 96 Thermal Cycler using the Bio-Rad SYBR Green Supermix. For analysis, the starting amount of anti-microbial peptide cDNA was compared to that of beta-actin, as a control. cDNA concentrations for genes of interest were examined by RT-PCR as described.
# Colonic samples were fixed in 10% buffered formalin, embedded in paraffin, processed routinely and sectioned at 5 μm. Sections were stained with hematoxylin and eosin (H&E) and then examined and graded using an Olympus microscope (Olympus America, Center Valley, PA) and ImagePro software. Sections were graded for leukocytic infiltration (0–4), epithelial erosion (0–4) and mucosal thickening (0–4).
# [6] = test system: PPARγ; conditions: cited from earlier work
# [7] = target: the molecule itself; assay: SEC; Superdex 75 column (16/600) at 1 ml/min in 50 mM sodium phosphate, 300 mM sodium chloride, pH 8; blue dextran run alongside
# [8] = Nlrx1-/- mice, day six of DSS, PUA 40 mg/kg oral gavage
# [9] = WT mice, day six of DSS, PUA 40 mg/kg oral gavage
# T2 sequence (Q86UT6 667-970 D677A/F680A/F681A/E684A limits assumed): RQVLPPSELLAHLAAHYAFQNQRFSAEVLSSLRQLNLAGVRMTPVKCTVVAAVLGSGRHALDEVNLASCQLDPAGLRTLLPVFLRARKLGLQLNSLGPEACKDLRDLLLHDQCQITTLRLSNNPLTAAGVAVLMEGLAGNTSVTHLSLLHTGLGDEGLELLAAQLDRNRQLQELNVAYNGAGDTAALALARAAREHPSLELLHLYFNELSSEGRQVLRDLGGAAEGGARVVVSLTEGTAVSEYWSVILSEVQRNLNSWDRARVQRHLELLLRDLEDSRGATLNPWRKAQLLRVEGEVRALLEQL
molecule,measurement,setting,value
"COc1cc(CCCCCCCCCCCCCCc2cc(OC)cc(OC)c2)cc(OC)c1 [1,14-bis (3,b-dimethoxypheny1)-tetradecane, reference compound]",binding to cNLRX1 by SPR (in words),"[1]; ssRNA 0.5-8 μM, negative control injected at 20 μM",failed to bind cNLRX1; also recorded: No binding was observed
"CC/C=C\C/C=C\C/C=C\C/C=C\C/C=C\C/C=C\CCC(=O)O [DHA, docosahexaenoic acid]",NF-κB activity,[2]; Nlrx1-/- BMDMs,abrogates the effect
same,NF-κB activity,[2]; wild type BMDMs,suppressed the NF-κB activity
same,Kd,"[1]; SPR, cNLRX1 WT, read-out: equilibrium constant of dissociation (KD)",2.3 µM
"CCCCC=CC=CC=CCCCCCCCC(=O)O [ESA, eleostearic acid]",equilibrium constant of dissociation (KD),[3],170 µM
same,Kd,[1],13.3 µM
same,kon,[1]; SPR,3420 M⁻¹ s⁻¹
same,effect on gut inflammation,[4],able to regulate gut inflammation
"CCCC\C=C/C=C/C=C\CCCCCCCC(=O)O [PUA, punicic acid]",equilibrium constant of dissociation (KD),[3],338 µM
same,NF-κB activity,[2]; Nlrx1-/- BMDMs,abrogates the effect
same,NF-κB activity,[2]; wild type BMDMs,suppressed the NF-κB activity
same,disease activity,[5]; Nlrx1-/- mice,no observable inhibition of colitis
same,TNFα mRNA expression in whole colon,[5]; [8],overall unaffected
same,colon histopathology (inflammatory amelioration),[5]; [8],failed to show any inflammatory amelioration
same,disease activity,[5]; WT mice,significant symptom regulation
same,TNFα mRNA expression in whole colon,[5]; [9],significantly lower
same,"colon histopathology scores (epithelial erosion, leukocytic infiltration, mucosal thickening)",[5]; [9],significantly lower scores
same,Kd,[1],14.6 µM
same,kon,[1]; SPR,2320 M⁻¹ s⁻¹
same,binding and activation of PPARγ,[6],robustly bind and activate PPARγ
same,effect on colitis,[4]; DSS-induced colitis and spontaneous pan-enteritis in IL-10−/− mice,ameliorate DSS-induced colitis and spontaneous pan-enteritis
"C-terminal fragment of the human NLRX1 (cNLRX1), AA 667-970 (domain or fragment, UniProt Q86UT6 667-970, looked up, NLRX1, human, C-terminal fragment, AA 667-970; Cloned into pPinkHC-Alpha-SDK; The vector may add a secretion signal, but the protein was purified from lysed cells; also called cNLRX1 wildtype; cNLRX1 (WT)) RQVLPPSELLDHLFFHYEFQNQRFSAEVLSSLRQLNLAGVRMTPVKCTVVAAVLGSGRHALDEVNLASCQLDPAGLRTLLPVFLRARKLGLQLNSLGPEACKDLRDLLLHDQCQITTLRLSNNPLTAAGVAVLMEGLAGNTSVTHLSLLHTGLGDEGLELLAAQLDRNRQLQELNVAYNGAGDTAALALARAAREHPSLELLHLYFNELSSEGRQVLRDLGGAAEGGARVVVSLTEGTAVSEYWSVILSEVQRNLNSWDRARVQRHLELLLRDLEDSRGATLNPWRKAQLLRVEGEVRALLEQL",binding result,[7],binds

# From publication PMC4694766, “Modeling-Enabled Characterization of Novel NLRX1 Ligands” (PLoS ONE, 2015)
